According to patent US20260224716A1, “PTH ANALOGS FOR THE TREATMENT OF HYPOPARATHYROIDISM” (priority 2020, published 2026):

How the values were obtained:
serum phosphate = test: Serum phosphate in parathyroidectomized rats, ten daily doses (Example 16); format: in vivo, Sprague-Dawley rats; conditions: for starting serum phosphate concentration: PTx rats, before first dose
Excerpt: (§1) Rats were randomly distributed among 5 groups and injected subcutaneously for ten consecutive days with either vehicle or SEQ ID NO; 87 (10, 25, 40 nmol/kg; n=8). Two separate vehicle treated groups of rats were studied. The first represented control rats surgically managed like the remaining rats, but their parathyroid gland was not removed (sham control). The second vehicle control group represented rats that were surgically managed in the same manner as the SEQ ID NO: 87 treated rats. Following surgery and one week prior to testing all the rats were placed on a defined diet at a specific calcium concentration.
Determination of phosphate levels was conducted with sampling at near-identical times to the serum calcium, differing only in the last days of the washout period. […] The starting phosphate level was 7.003 mg/dl, as compared to 11.317 mg/dl in the vehicle control group of the PTx rats. […] The difference between the two control groups was maintained through the course of the experiment. […] Efficacy was fully maintained through observation at Day 10, one day after the last administered dose. […] Twenty-five days after study initiation, all PTx-rats aligned as a group with increased phosphate, as compared to sham control rats.

serum calcium = test: Serum calcium in parathyroidectomized rats, ten daily doses (Example 16); format: in vivo, Sprague-Dawley rats; conditions: for starting serum calcium concentration: before first dose
Excerpt: as §1
A 96-well plate spectrophotometer (SpectraMax M5, Molecular Devices) was employed for detection. […] Absorbance (Ab) was measured at 650 nm wavelength. Manufacturer provided linearity up to 15 mg/dL. The serum calcium was measured immediately prior to injection (time 0 hour), followed by 24, 48, 72, and 96 hours.

## CC[C@H](C)[C@H](NC(=O)[C@H](CCC(=O)O)NC(=O)[C@H](CO)NC(=O)[C@@H](NC(=O)[C@H](CO)NC(=O)CN(C)C(=O)[C@H](N)CCCCNC(=O)CC[C@H](NC(=O)COCCOCCNC(=O)COCCOCCNC(=O)CC[C@H](NC(=O)CCCCCCCCCCCCCCCCC(=O)O)C(=O)O)C(=O)O)C(C)C)C(=O)N[C@@H](CCC(N)=O)C(=O)N[C@@H](CC(C)C)C(=O)N[C@@H](CCSC)C(=O)N[C@@H](Cc1c[nH]cn1)C(=O)N[C@@H](CC(N)=O)C(=O)N[C@@H](CC(C)C)C(=O)NCC(=O)N[C@@H](CCCCN)C(=O)N[C@@H](Cc1c[nH]cn1)C(=O)N[C@@H](CC(C)C)C(=O)N[C@@H](CC(N)=O)C(=O)N[C@@H](CO)C(=O)N[C@@H](CCSC)C(=O)N[C@@H](CCC(=O)O)C(=O)N[C@@H](CCCNC(=N)N)C(=O)N[C@H](C(=O)N[C@@H](CCC(=O)O)C(=O)N[C@@H](Cc1c[nH]c2ccccc12)C(=O)N[C@@H](CC(C)C)C(=O)N[C@@H](CCCNC(=N)N)C(=O)N[C@@H](CCCCN)C(=O)N[C@@H](CCCCN)C(=O)N[C@@H](CC(C)C)C(=O)N[C@@H](CCC(N)=O)C(=O)N[C@@H](CC(=O)O)C(=O)N[C@H](C(=O)N[C@@H](Cc1c[nH]cn1)C(=O)N[C@@H](CCCCNC(=O)CC[C@H](NC(=O)COCCOCCNC(=O)COCCOCCNC(=O)CC[C@H](NC(=O)CCCCCCCCCCCCCCCCC(=O)O)C(=O)O)C(=O)O)C(=O)O)C(C)C)C(C)C [SEQ ID NO: 87]
Serum phosphate; PTx rats, 10, 25, 40 nmol/kg daily SC, after seven days
  serum phosphate levels versus sham control: comparable to sham control rats
Serum phosphate; treatment group 10 nmol/kg
  starting serum phosphate concentration: 11.412 mg/dL
Serum phosphate; treatment group 25 nmol/kg
  starting serum phosphate concentration: 10.673 mg/dL
Serum phosphate; treatment group 40 nmol/kg
  starting serum phosphate concentration: 8.152 mg/dL
Serum phosphate; high-dose group 40 nmol/kg
  starting serum phosphate, decreased level versus PTx vehicle: 28%
Serum phosphate; low-dose group 10 nmol/kg
  starting serum phosphate, increase versus PTx vehicle: 1.0%
Serum phosphate; mid-dose group 25 nmol/kg
  starting serum phosphate, decreased level versus PTx vehicle: 5.7%
Serum calcium; PTx rats, 10, 25, 40 nmol/kg daily SC, after two days
  serum calcium levels versus sham control: virtually identical to sham control rats
Serum calcium; PTx rats, mid and high-dose (25, 40 nmol/kg), four and seven days
  serum calcium levels versus sham control: matched or exceeded what was observed in the sham control rats
Serum calcium; PTx rats, treatment group 10 nmol/kg
  starting serum calcium concentration: 4.5 mg/dL
Serum calcium; PTx rats, treatment group 25 nmol/kg
  starting serum calcium concentration: 5.028 mg/dL
Serum calcium; PTx rats, treatment group 40 nmol/kg
  starting serum calcium concentration: 5.108 mg/dL
Serum calcium; treatment group 10 nmol/kg
  starting serum calcium, decreased level versus PTx vehicle: 3.4%
Serum calcium; treatment group 25 nmol/kg
  starting serum calcium, increased level versus PTx vehicle: 7.9%
Serum calcium; treatment group 40 nmol/kg
  starting serum calcium, increased level versus PTx vehicle: 9.6%
